Laboratory results as given in patent US20240391903A1, “AUTOTAXIN-INHIBITORS” (UNIVERSITAET MUENSTER, priority 2021, published 2024).
“Also recorded” adds a separate entry of the source.

Assay: Microsomal stability assay
Assay type: in vitro ADME
Conditions: human liver microsomes
Procedure: A microsomal stability assay was performed according to an internal standard procedure. Positive control compound diclofenac and three test items were freshly prepared as sub-dilutions in phosphate buffer (100 mM, pH 7.4) at concentrations of 200 μM and 20 μM, respectively. All incubations were conducted in triplicate in glass screw neck vials (1.5 mL, flat bottom, Macherey-Nagel, Düren, Germany) on a Thermomixer C (Eppendorf, Germany) at 37° C. and 1500 rpm. The incubation mixtures contained 270 μL human liver microsomes (HLM, 1.1 mg·mL^−1, UltraPool HLM 150, Corning B.V. Life Science, Amsterdam, the Netherlands), 270 μL NADP regeneration mix (1 mM NADP, 5 mM glucose-6-phosphate, 5 units·mL^−1 glucose-6-phosphate dehydrogenase and 5 mM MgCl2) and 30 μL phosphate buffer to reach a total volume of 570 μL. Negative controls were performed with heat inactivated (80° C., 30 min) HLM solution. Reactions were initiated by addition of diclofenac or the test item solution (30 μL). Aliquots of 100 μL were taken at 1, 15, 30, 60, and 90 minutes and immediately processed with 100 μL acetonitrile at 4° C. to terminate the reactions, and shaken for 2 minutes at 4° C. with 1600 rpm. The mixed samples were further transferred to 15 mm glass inserts (0.2 mL/6×31 mm, Macherey-Nagel, Düren, Germany) fitted in glass screw neck vials, and centrifuged for 15 min at 4° C. with 4000 rpm. The supernatants were withdrawn and subjected to high resolution mass spectrometry analysis without further treatment.
Samples were analyzed using a Vanquish Horizon UHPLC system (Thermo Fisher Scientific, Bremen, Germany) coupled to a Thermo Scientific QExactive HF-X Orbitrap mass spectrometer (Thermo Fisher Scientific, Bremen, Germany) using a UPLC column (ACQUITY HSS T3, Waters, 1.8 μm particle size, 2.1×50 mm dimensions). The column temperature was maintained at 25° C., and the samples were kept at 4° C. […]
Microsomal stability was determined in analogy to the method as described above, but as single determinations (FIG. 18).

## O=C(OCc1cc(C(F)(F)F)cc(C(F)(F)F)c1)N1CCN(CCS(=O)(=O)c2ccc3nn[nH]c3c2)CC1 [MJK2134025, 3,5-bis(trifluoromethyl)benzyl 4-(2-((1H-benzo[d][1,2,3]triazol-6-yl)sulfonyl)ethyl)piperazine-1-carboxylate]
  microsomal stability / metabolism (in words): almost equally metabolically stable and superior to all other compounds tested; also recorded: favorable decay time course
